This note sets out measurements from ChEMBL document CHEMBL5724914, “Linking interpersonal differences in gut microbiota composition and drug biotransformation activity” (2024).

Data set [1] can be described thus: The drug is tested on WLS-038 corresponding to human gut metagenome with ENA study accession number: PRJEB37062 and ENA sample accession number: ERS12561745 for biotransformation under anaerobic condition. The drug concentrations were measured over 9 timepoints collected between 0 and 24 hours of incubation by liquid-chromatography-coupled mass spectrometry (LC–MS). As to conditions: 2 µM.

The nature of data set [2]: The drug is tested on WLS-007 corresponding to human gut metagenome with ENA study accession number: PRJEB37062 and ENA sample accession number: ERS12561742 for biotransformation under anaerobic condition. The drug concentrations were measured over 9 timepoints collected between 0 and 24 hours of incubation by liquid-chromatography-coupled mass spectrometry (LC–MS). The note with it: 2 µM.

For data set [3] the following is noted: human gut metagenome, 24 h, 2 µM.
For data set [4] the following is noted: human gut metagenome, 24 h, 2 µM. The source holds these as a separate data set.
The conditions of data set [5]: human gut metagenome, 24 h, 2 µM. This is another data set of the same source.
Data set [6] can be described thus: The drug is tested on WLS-090 corresponding to human gut metagenome with ENA study accession number: PRJEB37062 and ENA sample accession number: ERS12561753 for biotransformation under anaerobic condition. The drug concentrations were measured over 9 timepoints collected between 0 and 24 hours of incubation by liquid-chromatography-coupled mass spectrometry (LC–MS). As to conditions: 2 µM.

The conditions of data set [7]: human gut metagenome, 24 h, 2 µM. The source holds these as a separate data set.
The nature of data set [8]: The drug is tested on WLS-039 corresponding to human gut metagenome with ENA study accession number: PRJEB37062 and ENA sample accession number: ERS12561746 for biotransformation under anaerobic condition. The drug concentrations were measured over 9 timepoints collected between 0 and 24 hours of incubation by liquid-chromatography-coupled mass spectrometry (LC–MS). As to conditions: 2 µM.

Data set [9] can be described thus: The drug is tested on Z-013 corresponding to rabbit gut metagenome with ENA study accession number: PRJEB37062 and ENA sample accession number: ERS12561813 for biotransformation under anaerobic condition. The drug concentrations were measured over 9 timepoints collected between 0 and 24 hours of incubation by liquid-chromatography-coupled mass spectrometry (LC–MS). The note with it: 2 µM.

The conditions of data set [10]: human gut metagenome, 24 h, 2 µM. This is another data set of the same source.
Data set [11] can be described thus: The drug is tested on Z-008 corresponding to metagenome with ENA study accession number: PRJEB37062 and ENA sample accession number: ERS12561808 for biotransformation under anaerobic condition. The drug concentrations were measured over 9 timepoints collected between 0 and 24 hours of incubation by liquid-chromatography-coupled mass spectrometry (LC–MS). The note with it: 2 µM.

The conditions of data set [12]: human gut metagenome, 24 h, 2 µM. This is another data set of the same source.
Data set [13] in a line: The drug is tested on WLS-310 corresponding to human gut metagenome with ENA study accession number: PRJEB37062 and ENA sample accession number: ERS12561785 for biotransformation under anaerobic condition. The drug concentrations were measured over 9 timepoints collected between 0 and 24 hours of incubation by liquid-chromatography-coupled mass spectrometry (LC–MS). As to conditions: 2 µM.

For data set [14] the following is noted: human gut metagenome, 24 h, 2 µM. The source holds these as a separate data set.
For data set [15] the following is noted: human gut metagenome, 24 h, 2 µM. This is another data set of the same source.
The conditions of data set [16]: human gut metagenome, 24 h, 2 µM. This is another data set of the same source.
A short description of data set [17]: The drug is tested on Z-023 corresponding to metagenome with ENA study accession number: PRJEB37062 and ENA sample accession number: ERS12561822 for biotransformation under anaerobic condition. The drug concentrations were measured over 9 timepoints collected between 0 and 24 hours of incubation by liquid-chromatography-coupled mass spectrometry (LC–MS). The note with it: 2 µM.

Data set [18] is described as follows: The drug is tested on Z-010 corresponding to metagenome with ENA study accession number: PRJEB37062 and ENA sample accession number: ERS12561810 for biotransformation under anaerobic condition. The drug concentrations were measured over 9 timepoints collected between 0 and 24 hours of incubation by liquid-chromatography-coupled mass spectrometry (LC–MS). The note with it: 2 µM.

For data set [19] the following is noted: human gut metagenome, 24 h, 2 µM. The source holds these as a separate data set.
The conditions of data set [20]: human gut metagenome, 24 h, 2 µM. This is another data set of the same source.
Also: call rule not given here.

With `CC(=O)OCC(=O)[C@@]1(OC(C)=O)[C@@H](C)C[C@H]2[C@@H]3C[C@H](F)C4=CC(=O)C=C[C@]4(C)[C@@]3(F)[C@@H](O)C[C@@]21C` [DIFLORASONE DIACETATE], the “Bacterial Biotransformation” value in data set [1], in [2], in [3], in data set [4], in [5] and in [6] was “Compound metabolized” in each case. Besides, the “Bacterial Biotransformation” value in data set [7], in data set [8], in data set [9], in data set [10], in data set [11] and in [12] was “Compound metabolized” each time. Further, the “Bacterial Biotransformation” value in data set [13] is “Compound metabolized”; in [14], “Compound metabolized”; in data set [15], “Compound metabolized”; in [16], “Compound metabolized”; in data set [17], “Compound NOT metabolized”; in data set [18], “Compound metabolized”. Besides, the “Bacterial Biotransformation” value in data set [19] and in [20] was “Compound metabolized” each time.
Take `O=C1N=C([O-])NC1(c1ccccc1)c1ccccc1.[Na+]` [PHENYTOIN SODIUM]: the “Bacterial Biotransformation” value in data set [1] is “Compound NOT metabolized”; in data set [2] it was “Compound metabolized”; in data set [3], “Compound metabolized”; in [4], “Compound NOT metabolized”; in data set [5] it was “Compound metabolized”; in data set [6], “Compound metabolized”. Moreover, the “Bacterial Biotransformation” value in data set [7] is “Compound metabolized”; in data set [8], “Compound NOT metabolized”; in data set [9] it was “Compound NOT metabolized”; in data set [10], “Compound metabolized”; in [11] it was “Compound NOT metabolized”; in [12], “Compound NOT metabolized”. In addition, the “Bacterial Biotransformation” value in [13] is “Compound metabolized”; in data set [14] it was “Compound NOT metabolized”; in data set [15], “Compound NOT metabolized”; in data set [16], “Compound NOT metabolized”; in data set [17] it was “Compound NOT metabolized”; in data set [18] it was “Compound NOT metabolized”. In addition, the “Bacterial Biotransformation” value in [19] is reported as “Compound metabolized”; in data set [20], “Compound NOT metabolized”.
Take `CN1CCC(OC(c2ccccc2)c2ccccc2)CC1`: the “Bacterial Biotransformation” value in data set [1] is recorded as “Compound NOT metabolized”; in [2], “Compound NOT metabolized”; in data set [3] it was “Compound NOT metabolized”; in data set [4], “Compound NOT metabolized”; in data set [5], “Compound NOT metabolized”; in data set [6], “Compound metabolized”. The “Bacterial Biotransformation” value in [7] was “Compound metabolized”; in data set [8] it was “Compound metabolized”; in [9], “Compound NOT metabolized”; in [10] it was “Compound metabolized”; in data set [11], “Compound NOT metabolized”; in data set [12] it was “Compound NOT metabolized”. Also, the “Bacterial Biotransformation” value in [13] is recorded as “Compound metabolized”; in data set [14], “Compound NOT metabolized”; in data set [15] it was “Compound metabolized”; in data set [16] it was “Compound metabolized”; in [17], “Compound metabolized”; in data set [18] it was “Compound NOT metabolized”. For the same molecule, the “Bacterial Biotransformation” value in [19] and in [20] was “Compound NOT metabolized” in each case.
In the case of `CN1CCC(=C2c3ccccc3CC(=O)c3sccc32)CC1.O=C(O)/C=C/C(=O)O` [KETOTIFEN FUMARATE], the “Bacterial Biotransformation” value in [1] is “Compound NOT metabolized”; in [2], “Compound metabolized”; in data set [3], “Compound metabolized”; in data set [4] it was “Compound NOT metabolized”; in data set [5] it was “Compound metabolized”; in data set [6], “Compound metabolized”. In addition, the “Bacterial Biotransformation” value is on record as “Compound metabolized” in [7]; “Compound NOT metabolized” in data set [8]; “Compound NOT metabolized” in data set [9]; “Compound metabolized” in data set [10]; “Compound NOT metabolized” in data set [11]; “Compound NOT metabolized” in data set [12]. In addition, the “Bacterial Biotransformation” value in [13] is “Compound metabolized”; in data set [14] it was “Compound metabolized”; in data set [15], “Compound NOT metabolized”; in data set [16], “Compound metabolized”; in data set [17] it was “Compound NOT metabolized”; in data set [18] it was “Compound NOT metabolized”. The “Bacterial Biotransformation” value in data set [19] and in data set [20] was “Compound NOT metabolized” in each case.
With `CN1[C@@H]2CC[C@H]1C[C@@H](OC(=O)c1c[nH]c3ccccc13)C2` [TROPISETRON], the “Bacterial Biotransformation” value in data set [1] is given as “Compound NOT metabolized”; in data set [2], “Compound NOT metabolized”; in data set [3], “Compound metabolized”; in data set [4], “Compound NOT metabolized”; in [5], “Compound NOT metabolized”; in data set [6], “Compound metabolized”. Also, the “Bacterial Biotransformation” value in data set [7], in data set [8], in data set [9], in data set [10], in data set [11] and in [12] was “Compound NOT metabolized” in each case. In addition, the “Bacterial Biotransformation” value in data set [13], in data set [14], in data set [15], in data set [16], in data set [17] and in [18] was “Compound NOT metabolized” throughout. Further, the “Bacterial Biotransformation” value in data set [19] and in data set [20] was “Compound NOT metabolized” each time.
